Measurements reported in patent publication US11452705B2, “Oral drug delivery composition containing oxaliplatin and method for preparing same” (ICURE BNP CO., LTD., priority 2017, dated 2022).
Each block holds one molecule with its values, some of them ahead of it.

Legend:
[1] = Artificial intestinal membrane permeability (PAMPA); format: in vitro ADME; details: aqueous solution (control), PBS pH 6.8, 5 hours, room temperature
Description: Then, 200 μL was added to the donor of each well of the PAMPA plate, and 300 μL of buffer (PBS, pH 6.8) was added to each well of the receptor plate. The plate assembly was set by coupling the donor plate with the receiver plate. After 5 hours at room temperature, samples were withdrawn from donors and receptors in each well of the PAMPA plate, and the concentration was measured as follows.
The mobile phase consisted of water (pH 3.0 adjusted with phosphoric acid)-acetonitrile (99:1, v/v) and was run at a flow rate of 0.8 mL/min.
For 5-FU, injected into an HPLC system equipped with a C18 column (4.6×250 mm, 5 μm, 100 Δ; 20 μL injection), and were chromatographed using an isocratic mobile phase of deionized water (pH 3.2 adjusted with phosphoric acid) at a flow rate of 0.8 mL/min. The UV detection was carried out at 260 nm.
Effective permeability (Pe) of each drug was calculated using the following formula. Pe=−ln[1−CA(t)/Cequilibrium]/[A(1/VD+1/VA)×t]
(Pe: permeability (cm/s); A: Effective filter area (f×0.3 cm^2; f: Porosity of the filter (f=0.76)); VD: volume of the donor well (0.2 mL); VA: volume of Receptor well (0.3 mL); t: the total time of incubation in seconds (s); CA(t): concentration of drug in the receptor well at time t; Cequilibrium: [CD(t)×VD+CA(t)×VA]/(VD+VA); CD(t): concentration of residual drug in donor at time t)

[2] = In vivo oral absorption in rats, plasma OXA (Pt by AAS); details: rat
Description: (§1) After oral and intravenous administration, 200 μL of blood was collected from a capillary in the retro-orbital plexus at different time intervals and directly mixed with 50 μL of sodium citrate (3.8% solution). Blood samples were then immediately centrifuged (2,500×g, 15 minutes, 4° C.). The plasma samples were isolated and kept frozen at −70° C. until analysis.
Before analysis, the sample was diluted with 10 mL of 3% nitric acid solution and then injected into the furnace for AAS analysis. All measurements were carried out using a Thermo Scientific iCE 3500 AAS (Thermo Fisher Scientific) equipped with a GFS35 graphite furnace and a GFS35Z autosampler. Argon was used as the purging gas at 200 mL/min, and the injection volume of the sample was 20 μL. The spectrometer was provided with a Zeeman-based background corrector, and the […].

[3] = In vitro intestinal cell membrane permeability across Caco-2 cell monolayer; format: in vitro ADME; details: human, Solution in HBSS (control), apical to basolateral, 37° C., read-out: Apparent permeability (Papp)
Description: Caco-2 cells were seeded onto each well of 12-well Transwell® filter insert (pore size: 0.4 μm, surface area: 1.12 cm^2; Corning, N.Y., USA) at a density of 3×10^5 cells/well. Dulbecco's modified Eagle's medium (DMEM; Lonza, Basel, Switzerland) medium containing 10% fetal bovine serum (FBS; Gibco, Thermo Fisher Scientific) and 1% penicillin/streptomycin (Gibco) was changed every 48 hours for 21 to 29 days, and Caco-2 cell monolayers with a transepithelial electrical resistance (TEER) of >350 Ω·cm^2 were used for in vitro intestinal membrane permeability experiments.
First, the culture medium was removed and the monolayer was pre-incubated with 0.5 mL of Hanks' balanced salt solution (HBSS) for 20 min at 37° C. […] After processing the sample, 100-μL samples were taken from the basolateral compartment at 0.5, 1, 2, 3, 4, and 5 h. The samples were filtered through a membrane filter.

[4] = Drug release (dissolution) test, USP type 1 apparatus (basket); format: physicochemical; details: pH 1.2, within 15 min
Description: Dissolution tests were performed in 500 mL of medium containint 0.1 N HCl solution (pH 1.2) or phosphate buffer (pH 6.8) at 37±0.2° C., using the USP type 1 apparatus (basket) rotating at 100 rpm.
Each capsule was subjected to a dissolution test, and 1-mL samples were withdrawn at 15, 30, 45, 60, 90, and 120 min. After filtration, the amount of drug released was quantified by the HPLC using a UV detector, as in Example 7, and the results are shown in FIG. 6.

[5] = In vivo oral absorption in rats, plasma 5-FU (HPLC); details: rat
Description: as §1
To determine the plasma concentration of 5-FU, 100 μL of each standard and plasma samples were diluted with 50 μL of 20 μg/mL internal standard (IS, chlorouracil) and 100 μL of saturated ammonium sulfate solution. After vortexing for 1 min, the diluted plasma sample was extracted with a 2-mL solvent mixture of propanol and diethylether (80:20, v/v). The mixture was then centrifuged at 2,500×g for 10 min and the collected organic phase was evaporated under nitrogen at 37° C. The dried residues were reconstituted with 100 μL of mobile phase for HPLC analysis (ammonium phosphate buffer with pH 6.8/methanol, 98:2, v/v), followed by vortexing, and then determined by HPLC with a C8 column (4.6×250 mm, 5 μm) at a flow rate of 1 mL/min mobile phase. A 50-μL sample was injected and 5-FU was measured at 260 nm.

[6] = test system: CT26 mouse colon tumor cells; experiment: In vivo tumor growth inhibition, CT26 tumor-bearing mice; design: species or system BALB/c mice
Description: The CT26 mouse colon tumor cells were subcutaneously grafted into the flanks of BALB/c mice at a concentration of 1×10^6 cells/100 μL of PBS (pH 7.4). […] During 18-day treatment, mice were fasted for 4 h before oral administration and 2 h after administration. Tumors were measured every three days in two dimensions using a caliper, and tumor volumes were calculated as a^2×b×0.52, where a=width and b=length. Body weight was also measured.
At 18 days after administration, the isolated tumors masses were measured, and tumor tissues were fixed in 10% formalin for histological evaluation. Staining with proliferating cell nuclear antigen (PCNA) for cell proliferation and fluorescent terminal deoxynucleotidyl transferase-mediated dUPT nick end labeling (TUNEL) for apoptosis were carried out.

Effective permeability (Pe) [1]: 0.54±0.12 ×10^−6 cm/s | AUCinf ([2]; intravenous, OXA 5 mg/kg): 2.537 ± 1.312 µg·h/mL | AUClast ([2]; intravenous, OXA 5 mg/kg): 1.962 ± 0.746 µg·h/mL | Cmax ([2]; intravenous, OXA 5 mg/kg): 2.454 ± 0.990 µg/mL | T1/2 ([2]; intravenous, OXA 5 mg/kg): 186.2 ± 126.8 min | Bioavailability ([2]; intravenous, OXA 5 mg/kg (reference)): 100% | AUCinf ([2]; oral, OXA 10 mg/kg): 0.170 ± 0.061 µg·h/mL | AUClast ([2]; oral, OXA 10 mg/kg): 0.111 ± 0.095 µg·h/mL | Bioavailability ([2]; oral, OXA 10 mg/kg): 2.824 ± 2.428% | Cmax ([2]; oral, OXA 10 mg/kg): 0.032 ± 0.014 µg/mL | T1/2 ([2]; oral, OXA 10 mg/kg): 91.68 ± 54 min | Tmax ([2]; oral, OXA 10 mg/kg): 110 ± 17.3 min
Structure (SMILES): O=C([O-])C(=O)[O-].[NH-][C@@H]1CCCC[C@H]1[NH-].[Pt+4] (relative stereo) [OXA, cis-[(1R,2R)-1,2-cyclohexanediamine-N,N′][oxalato(2-)-O,O′]platinum]

Effective permeability (Pe) [1]: 1.27±0.46 ×10^−6 cm/s | Papp A→B at 5 h, 384.4 μM [3]: 34.6 ± 12.2 nm/s | Drug released from the nanoemulsions [4]: at least 85% | half-life ([5]; plasma, oral, 5-FU 20 mg/kg): 48.8 ± 34 min | AUCinf ([5]; intravenous, 5-FU 5 mg/kg): 0.670 ± 0.221 µg·h/mL | AUClast ([5]; intravenous, 5-FU 5 mg/kg): 0.657 ± 0.220 µg·h/mL | Cmax ([5]; intravenous, 5-FU 5 mg/kg): 0.716 ± 0.124 µg/mL | T1/2 ([5]; intravenous, 5-FU 5 mg/kg): 45.6 ± 6.54 min | Bioavailability ([5]; intravenous, 5-FU 5 mg/kg (reference)): 100% | AUCinf ([5]; oral, 5-FU 20 mg/kg): 0.287 ± 0.096 µg·h/mL | AUClast ([5]; oral, 5-FU 20 mg/kg): 0.242 ± 0.058 µg·h/mL | Bioavailability ([5]; oral, 5-FU 20 mg/kg): 9.218 ± 2.198% | Cmax ([5]; oral, 5-FU 20 mg/kg): 0.092 ± 0.008 µg/mL | Tmax ([5]; oral, 5-FU 20 mg/kg): 30 ± 0 min
Structure (SMILES): O=c1[nH]cc(F)c(=O)[nH]1 [Composition 5-FU, 5-fluorouracil]
Effect of inhibiting tumor growth compared with the group administered orally with the OXA/DCK aqueous solution ([6]; once daily oral 10 mg/kg 5-FU in water): did not show a significant difference | Inhibition of tumor growth (tumor volume) compared to the control ([6]; once daily oral, 18-day treatment, 10 mg/kg OXA and/or 10 mg/kg 5-FU): 57.9%
